Assay results: US8227207B2, “Bioactive peptides derived from the proteins of egg white by means of enzymatic hydrolysis” (Consejo Superior de Investigaciones Cientifcas, priority 2004, dated 2012)
Entries after “also recorded” stand apart in the source; their conditions may differ. Residues, ends and D or L forms follow the SMILES beside them.

What was measured:
[1] = molecular target: T1, angiotensin converting enzyme (ACE, EC 3.4.15.1) (Oryctolagus cuniculus, UniProt P12822); format: biochemical; conditions: for IC50: read-out: ACEI activity IC50, synthetic peptides; for ACEI activity in vitro (in words): peptides
T1 sequence (P12822 34-1310): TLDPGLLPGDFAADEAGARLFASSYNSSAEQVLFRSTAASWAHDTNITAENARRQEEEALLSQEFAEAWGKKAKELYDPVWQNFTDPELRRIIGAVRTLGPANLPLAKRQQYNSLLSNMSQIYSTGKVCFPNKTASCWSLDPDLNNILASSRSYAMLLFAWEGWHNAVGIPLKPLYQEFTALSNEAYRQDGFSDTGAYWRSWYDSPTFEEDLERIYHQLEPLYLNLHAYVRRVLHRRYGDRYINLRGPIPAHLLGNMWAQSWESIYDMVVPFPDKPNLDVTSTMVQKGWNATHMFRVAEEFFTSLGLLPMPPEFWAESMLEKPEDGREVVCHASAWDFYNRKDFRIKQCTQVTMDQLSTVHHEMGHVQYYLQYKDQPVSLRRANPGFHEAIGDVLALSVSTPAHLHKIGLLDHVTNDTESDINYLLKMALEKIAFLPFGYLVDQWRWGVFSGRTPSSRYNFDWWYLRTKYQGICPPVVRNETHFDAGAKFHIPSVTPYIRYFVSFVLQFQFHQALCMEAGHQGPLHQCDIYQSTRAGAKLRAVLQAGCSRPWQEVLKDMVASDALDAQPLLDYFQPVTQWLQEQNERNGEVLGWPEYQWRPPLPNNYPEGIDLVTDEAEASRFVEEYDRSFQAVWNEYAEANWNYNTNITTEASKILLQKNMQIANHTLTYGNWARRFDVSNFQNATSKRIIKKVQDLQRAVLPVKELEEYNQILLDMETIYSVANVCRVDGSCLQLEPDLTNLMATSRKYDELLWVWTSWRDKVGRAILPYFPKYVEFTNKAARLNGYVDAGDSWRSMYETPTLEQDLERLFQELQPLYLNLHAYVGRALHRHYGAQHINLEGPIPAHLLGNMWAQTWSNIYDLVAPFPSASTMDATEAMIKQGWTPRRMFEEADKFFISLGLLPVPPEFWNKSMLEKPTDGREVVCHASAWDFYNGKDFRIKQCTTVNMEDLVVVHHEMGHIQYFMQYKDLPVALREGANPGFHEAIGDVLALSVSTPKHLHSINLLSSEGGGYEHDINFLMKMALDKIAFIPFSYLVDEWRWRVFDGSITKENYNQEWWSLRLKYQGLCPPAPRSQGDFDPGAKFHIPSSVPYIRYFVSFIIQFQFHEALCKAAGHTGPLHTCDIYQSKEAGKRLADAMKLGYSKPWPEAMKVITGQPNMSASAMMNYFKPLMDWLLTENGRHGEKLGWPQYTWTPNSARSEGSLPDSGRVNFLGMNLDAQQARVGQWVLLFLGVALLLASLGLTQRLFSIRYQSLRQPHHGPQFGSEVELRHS
Protocol: The inhibitory activity of the angiotensin converting enzyme (ACE) is measured in vitro according to the method of D. W. Cushman and H. S. Cheung (Spectrophotometric assay and properties of the angiotensin-converting enzyme of rabbit lung. Biochemical Pharmacology, 1971, 20: 1637-1648), later on modified by Y. K. Kim, S. Yoon, D. Y. Yu, B. Lönnerdal and B. H. Cheung (Novel angiotensin-I-converting enzyme inhibitory peptides derived from recombinant human αs1-casein expressed in Escherichia coli, Journal of Dairy Research 1999, 66, 431-439).
The substrate hippuryl histidyl leucine (HHL, Sigma Chemicals Co., St. Louis, Mo., USA) is dissolved in a 0.1 M borate buffer with 0.3 M NaCl pH 8.3 to obtain a final concentration of 5 mM. To 100 μl of substrate are added 40 μl of each of the samples whose ACEI activity it is wished to determine. The ACE enzyme (EC 3.4.15.1, Sigma) is added, dissolved in 50% glycerol and diluted 1/10 in bidistilled water at the moment of conducting the assay. The reaction is carried out at 37° C. for 30 minutes in a water-bath. The enzyme is deactivated by lowering the pH with 150 μl of 1 N HCl. The hippuric acid formed is extracted with 1000 μl of ethyl acetate. Following vortex stirring for 20 seconds, it is centrifuged at 4000 rpm for 10 minutes at room temperature. 750 μl of the organic phase are taken and evaporated by heating at 95° C. for 10 minutes. The hippuric acid residue is redissolved in 800 μl of bidistilled water and, following stirring for 20 seconds, the absorbency at 228 nm is measured in a Dur-70 spectrophotometer from Beckman Instruments, Inc., Fullerton, USA.
In order to calculate the percentage of ACEI activity, the following formula is used
The blank is used for correcting the background absorbency. This contains substrate, enzyme and 20 μl of bidistilled water in place of the sample, and the reaction is halted at zero time. The control implies a hundred percent of the enzymatic action on the substrate in the absence of inhibitors and contains 20 μl of water in place of the sample and is incubated the same time as the sample.
The results are presented as the IC50 (μM or μg/ml) or concentration at which 50% of the enzyme's activity is inhibited. The concentration of protein is determined by means of the bicinchonomic acid (BCA) assay (Pierce, Rockford, Ill., USA) using bovine seroalbumin as reference.

[2] = system: Wistar-Kyoto rats (WKY); test: Systolic arterial pressure (tail cuff) in normotense Wistar-Kyoto rats; format: in vivo, rat; conditions: highest dose used, intragastric probe
Protocol: (§1) The effect is studied of various identified peptides and of some products containing them (for example egg white hydrolysed with pepsin for 3 hours and the fraction of it less than 3000 Da) on the arterial pressure of spontaneously hypertensive rats (SHR) and Wistar-Kyoto rats (WKY) which are the normotense controls for the SHR.
(§2) This study is conducted with SHR (10) and WKY of 17-24 weeks old and weight between 300 and 350 g, coming from Charles River Laboratories España, S. A. The rats are kept in cages of five by five and maintained at a stable temperature of 25° C. with light-dark cycles of 12 hours, ingesting freely available water and food. In order to carry out the measurement of systolic arterial pressure (SAP) “tail cuff” equipment is used (Le5001, Letica) which automatically provides a digital value of the SAP and records and facilitates the cardiac frequency of the animals. Various measurements are made and the average of all of them is obtained in order to achieve a reliable value of the SAP. Before positioning the cuff and transducer in the tail of the rats, the rats are exposed to a temperature of close to 30° C. in order to facilitate dilation of the caudal artery. Also, in order to ensure the reliability of the measurement, the animals are made to get used to the procedure for two weeks prior to conducting each assay in question.
(§3) The administration of the products to be assayed is done by means of an intragastric probe in a time margin of between 9 and 10 o'clock in the morning. The SHR used for the study had SAP values of between 230 and 280 mm Hg. The WKY used for the study at that moment had SAP values of between 160 and 200 mm Hg. Measurements of the SAP were taken from the animals periodically, every 2 hours, up to 8 hours post-administration of the products to be assayed; in addition, a SAP measurement was taken 24 hours after the administration of those products. As negative control (in order to establish the circadian variation of the SAP in probed rats) the measurements of the SAP obtained in rats which had been administered 1 ml of water by means of intragastric probe were used. As positive control, the measurements of the SAP obtained in rats which had been administered 50 mg/kg of Captopril (prototype ACEI drug) by means of intragastric probe were used. This dose of Captopril was administered to each rat in a volume of 1 ml. In order to establish the effect of the unhydrolysed egg white on the arterial pressure of the animals, similar assays to those described above were conducted, in which the animals were treated by the same procedure with 200 mg/kg of previously freeze-dried egg white (reference).
The results obtained are grouped and the mean±the standard error of measurement (SEM) is obtained for a minimum of 9 homogenous assays. […]

[3] = system: spontaneously hypertensive rats (SHR); test: Antihypertensive activity: systolic arterial pressure (tail cuff) in spontaneously hypertensive rats; format: in vivo, rat; conditions: for time of maximum drop in SAP after administration: intragastric probe; for drop in systolic arterial pressure (SAP) / anti-hypertensive activity (in words): single administration by intragastric probe
Protocol: as §1, §2, §3
The results obtained are grouped and the mean±the standard error of measurement (SEM) is obtained for a minimum of 9 homogenous assays. The data of the treated animals are always compared with the data deemed to be a negative control. In order to compare them and obtain the statistical significance, Student's t-test for unpaired data is used and the difference for values of p<0.05 is considered significant.

Molecule `CC[C@H](C)[C@H](NC(=O)[C@H](CCC(N)=O)NC(=O)[C@@H](N)Cc1ccc(O)cc1)C(=O)NCC(=O)N[C@@H](CC(C)C)C(=O)O` [SEQ. ID. N^o 1, YQIGL] (H-YQIGL-OH; N-terminus and C-terminus assumed) has an IC50 [1] of 174 µM.

In the case of `CC[C@H](C)[C@H](N)C(=O)N[C@H](C(=O)N[C@@H](Cc1ccccc1)C(=O)O)C(C)C` [SEQ. ID. N^o 2, IVF], the “change in SAP in normotense rats (in words)” value [2] is reported as “not in normotensed Wistar-Kyoto rats; also recorded: none of these compounds modifies the SAP”, the “time of maximum drop in SAP after administration” value [3] is reported as 6 h and the “drop in systolic arterial pressure (SAP) / anti-hypertensive activity (in words)” value [3] is reported as “possess anti-hypertensive activity; also recorded: significant dose-dependent drop in the SAP; also recorded: clear and pronounced anti-hypertensive effect; also recorded: display anti-hypertensive activity”. For the same molecule, the “ACEI activity in vitro (in words)” value [1] was “potent ACEI activity”.

With `CC(C)C[C@H](NC(=O)[C@H](Cc1ccccc1)NC(=O)[C@@H]1CCCN1C(=O)[C@H](Cc1c[nH]cn1)NC(=O)[C@H](CC(=O)O)NC(=O)[C@H](C)NC(=O)[C@@H](N)CCCNC(=N)N)C(=O)O` [SEQ. ID. N^o 3, RADHPFL] (H-RADHPFL-OH; N-terminus and C-terminus assumed) the “change in SAP in normotense rats (in words)” value [2] was “not in normotensed Wistar-Kyoto rats; also recorded: none of these compounds modifies the SAP”, the “time of maximum drop in SAP after administration” value [3] was 6 h and the “drop in systolic arterial pressure (SAP) / anti-hypertensive activity (in words)” value [3] was “possess anti-hypertensive activity; also recorded: significant dose-dependent drop in the SAP; also recorded: clear and pronounced anti-hypertensive effect; also recorded: display anti-hypertensive activity”. For the same molecule, the “ACEI activity in vitro (in words)” value [1] was “potent ACEI activity” and the IC50 [1] was 6.2 µM.

Work on `CC[C@H](C)[C@H](NC(=O)[C@H](CC(=O)O)NC(=O)[C@@H](N)CCCNC(=N)N)C(=O)N[C@@H](CC(C)C)C(=O)N[C@@H](CC(N)=O)C(=O)N[C@@H](CCC(N)=O)C(=O)O` [SEQ. ID. N^o 7, RDILNQ] (H-RDILNQ-OH) yielded an IC50 [1] of 436 µM.

Work on `CSCC[C@H](NC(=O)[C@H](C)NC(=O)[C@H](CC(C)C)NC(=O)[C@H](C)NC(=O)[C@@H](N)CO)C(=O)O` [SEQ. ID. N^o 8, SALAM] (H-SALAM-OH) yielded an IC50 [1] of 229 µM.

For `CC[C@H](C)[C@H](NC(=O)[C@H](CO)NC(=O)[C@@H](N)CCC(=O)O)C(=O)N[C@H](C(=O)N[C@@H](CC(N)=O)C(=O)N[C@@H](Cc1ccccc1)C(=O)O)[C@@H](C)CC` [SEQ. ID. N^o 12, ESIINF] (H-ESIINF-OH), the IC50 [1] was greater than 1000 µM.

`CC(C)C[C@H](NC(=O)CNC(=O)[C@H](CO)NC(=O)[C@@H](NC(=O)[C@H](CCC(=O)O)NC(=O)[C@H](CC(=O)O)NC(=O)[C@@H]1CCCN1C(=O)[C@H](CC(C)C)NC(=O)[C@H](CC(C)C)NC(=O)[C@@H](N)C(C)C)C(C)C)C(=O)O` [SEQ. ID. N^o 13] (H-VLLPDEVSGL-OH) was tested, and the IC50 [1] was greater than 1000 µM.

Work on `CC[C@H](C)[C@H](NC(=O)[C@H](CC(C)C)NC(=O)[C@@H](N)CCC(=O)O)C(=O)N[C@@H](CC(N)=O)C(=O)O` [SEQ. ID. N^o 14, ELIN] (H-ELIN-OH) yielded an IC50 [1] greater than 1000 µM.

With `CC[C@H](C)[C@H](NC(=O)[C@@H]1CCCN1C(=O)[C@H](CCC(=O)O)NC(=O)[C@H](CC(C)C)NC(=O)CNC(=O)CNC(=O)[C@H](CCCNC(=N)N)NC(=O)[C@@H](N)Cc1ccc(O)cc1)C(=O)N[C@@H](CC(N)=O)C(=O)N[C@@H](Cc1ccccc1)C(=O)O` [SEQ. ID. N^o 15] (H-YRGGLEPINF-OH) the IC50 [1] was greater than 1000 µM.

B1: unhydrolysed ovalbumin: ovalbumin grade VI (99% purity) (Sigma), unhydrolysed (protein)
chain: GSIGAASMEFCFDVFKELKVHHANENIFYCPIAIMSALAMVYLGAKDSTRTQINKVVRFDKLPGFGDSIEAQCGTSVNVHSSLRDILNQITKPNDVYSFSLASRLYAEERYPILPEYLQCVKELYRGGLEPINFQTAADQARELINSWVESQTNGIIRNVLQPSSVDSQTAMVLVNAIVFKGLWEKAFKDEDTQAMPFRVTEQESKPVQMMYQIGLFRVASMASEKMKILELPFASGTMSMLVLLPDEVSGLEQLESIINFEKLTEWTSSNVMEERKIKVYLPRMKMEEKYNLTSVLMAMGITDVFSSSANLSGISSAESLKISQAVHAAHAEINEAGREVVGSAEAGVDAASVSEEFRADHPFLFCIKHIATNAVLFFGRCVSP
With B1 the “ACEI activity IC50” value ([1]; protein concentration, product as such) was greater than 750 µg/mL.
